Data reported in US7687453B2, “Method for administering insulin to the buccal region” (Generex Pharmaceuticals Incorporated, priority 1998, dated 2010).

Key:
Type in all cases: in vivo, human
blood glucose [1] = assay: Blood glucose after insulin injection vs oral insulin drops, fasted healthy non-diabetic volunteers (Example 1); set-up: unit not given here; conditions: 10 units sub-cutaneous injection, avg of 5 fasted healthy volunteers
Description: In one set of tests, five healthy non-diabetic human volunteers were tested with insulin, by injection. In another set of tests the volunteers were tested with insulin, taken orally. The volunteers fasted from midnight prior to the test, with no food being taken during the 4 hour study.
(§1) On the first day, the volunteers received 10 units of insulin by injection (regular fast acting insulin, available from Eli Lilly). On the second day, the volunteers received 100 units (1 mL volume per drop, approximately 20 drops) of the above-prepared oral insulin (10 times the injection dose). In both tests, blood glucose levels were monitored every 15 minutes by Bayer's Glucometer Elite.

meal glucose [2] = assay: Meal glucose, oral mixed micellar insulin vs injection, Type II diabetic volunteers (Example 12); conditions: injection 10 units, avg of 10 Type II diabetics, meal 30 min after dosing
Description: The mixed micellar formulation of Example 9 was tested in diabetic volunteers under controlled conditions to determine the oral insulin effect on meal glucose when compared to injected insulin.
(§2) In one set of tests, ten Type II diabetic human volunteers who took insulin, by injection three times a day, were studied. In another set of tests the volunteers were tested with insulin, taken orally. The volunteers fasted from midnight prior to the tests, with food being taken 30 minutes after dosing. The meals were standard Sastacal 240 mL liquid diet approved by the Diabetic Society, containing 400 calories.
as §1, with “units” for “units of”, “30” for “100”, “units” for “units (1 mL volume per drop, approximately 20 drops)”, “(3” for “(10”

meal glucose [3] = assay: Meal glucose, oral mixed micellar insulin vs injection, healthy non-diabetic volunteers (Example 11); conditions: injection 10 units, ten healthy volunteers, meal 30 min after dosing
Description: The mixed micellar formulation of Example 9 was tested in healthy volunteers under controlled conditions to determine the oral insulin effect on meal glucose when compared to injected insulin.
as §2, with “healthy non-diabetic” for “Type II diabetic”, “were tested with” for “who took”, “injection.” for “injection three times a day, were studied.”
as §1, with “units” for “units of”, “30” for “100”, “units” for “units (1 mL volume per drop, approximately 20 drops)”, “(3” for “(10”

meal glucose [4] = assay: Meal glucose, chewable gum insulin vs injection, Type II diabetic volunteers (Example 13); conditions: injection 10 units, avg of five Type II diabetics, meal 30 min after dosing
Description: The mixed micellar formulation in chewable stick form was tested in diabetic volunteers under controlled conditions to determine the oral insulin effect on meal glucose when compared to injected insulin.
as §2, with “of tests, five Type II” for “of tests, ten Type II”, “tested with the chewable gum insulin, taken” for “tested with insulin, taken”
as §1, with “units” for “units of”, “30” for “100”, “units” for “units (1 mL volume per drop, approximately 20 drops)”, “above-prepared chewable gum” for “above-prepared”, “(3” for “(10”, “in” for “In”

blood glucose [5] = assay: Blood glucose, oral mixed micellar insulin (bacitracin, evening primrose oil) vs injection, fasted volunteers (Example 14); conditions: injection 10 units, avg of six fasted volunteers
Description: Six human volunteers were studied. The volunteers fasted from midnight prior to the test, with no food being taken during the 4 hour study. On the first day, the volunteers received 10 units insulin by injection (regular fast acting insulin, available from Eli Lilly). On the second day, the volunteers received 20 units of the above-prepared oral insulin (twice the injection dose). In both tests, blood glucose levels were monitored at intervals by Bayer's Glucometer Elite.

Substance: regular fast acting insulin: regular fast acting insulin, available from Eli Lilly, given by injection (10 units)
- Blood glucose level (blood glucose [1]; 0 min): 5.8
- Blood glucose level (blood glucose [1]; 15 min): 5.8
- Blood glucose level (blood glucose [1]; 30 min): 5.4
- Blood glucose level (blood glucose [1]; 60 min): 5.0
- Blood glucose level (blood glucose [1]; 75 min): 4.6
- Blood glucose level (blood glucose [1]; 90 min): 4.3
- Blood glucose level (blood glucose [1]; 120 min): 3.8
- Blood glucose level (blood glucose [1]; 150 min): 3.6
- Blood glucose level (blood glucose [1]; 180 min): 3.4
- Blood glucose level (blood glucose [1]; 210 min): 4.2
- Blood glucose level (blood glucose [1]; 240 min): 4.5
- Blood glucose levels (meal glucose [2]; 0 min): 8.7 mmol/L
- Blood glucose levels (meal glucose [2]; 15 min): 8.8 mmol/L
- Blood glucose levels (meal glucose [2]; 30 min): 8.9 mmol/L
- Blood glucose levels (meal glucose [2]; 45 min): 10.1 mmol/L
- Blood glucose levels (meal glucose [2]; 60 min): 11.8 mmol/L
- Blood glucose levels (meal glucose [2]; 75 min): 11.8 mmol/L
- Blood glucose levels (meal glucose [2]; 90 min): 12.2 mmol/L
- Blood glucose levels (meal glucose [2]; 105 min): 11.2 mmol/L
- Blood glucose levels (meal glucose [2]; 120 min): 10.4 mmol/L
- Blood glucose levels (meal glucose [2]; 135 min): 8.4 mmol/L
- Blood glucose levels (meal glucose [2]; 150 min): 7.3 mmol/L
- Blood glucose levels (meal glucose [2]; 165 min): 6.5 mmol/L
- Blood glucose levels (meal glucose [2]; 180 min): 4.3 mmol/L
- Blood glucose levels (meal glucose [3]; 0 min): 5.5 mmol/L
- Blood glucose levels (meal glucose [3]; 15 min): 5.6 mmol/L
- Blood glucose levels (meal glucose [3]; 30 min): 5.4 mmol/L
- Blood glucose levels (meal glucose [3]; 45 min): 5.4 mmol/L
- Blood glucose levels (meal glucose [3]; 60 min): 5.6 mmol/L
- Blood glucose levels (meal glucose [3]; 75 min): 6.6 mmol/L
- Blood glucose levels (meal glucose [3]; 90 min): 7.0 mmol/L
- Blood glucose levels (meal glucose [3]; 105 min): 5.9 mmol/L
- Blood glucose levels (meal glucose [3]; 120 min): 5.6 mmol/L
- Blood glucose levels (meal glucose [3]; 135 min): 5.1 mmol/L
- Blood glucose levels (meal glucose [3]; 150 min): 4.8 mmol/L
- Blood glucose levels (meal glucose [3]; 165 min): 4.6 mmol/L
- Blood glucose levels (meal glucose [3]; 180 min): 4.3 mmol/L
- Blood glucose levels (meal glucose [4]; 0 min): 8.8 mmol/L
- Blood glucose levels (meal glucose [4]; 15 min): 8.2 mmol/L
- Blood glucose levels (meal glucose [4]; 30 min): 8.0 mmol/L
- Blood glucose levels (meal glucose [4]; 45 min): 8.4 mmol/L
- Blood glucose levels (meal glucose [4]; 60 min): 9.2 mmol/L
- Blood glucose levels (meal glucose [4]; 75 min): 10.3 mmol/L
- Blood glucose levels (meal glucose [4]; 90 min): 11.8 mmol/L
- Blood glucose levels (meal glucose [4]; 105 min): 11.6 mmol/L
- Blood glucose levels (meal glucose [4]; 120 min): 11.0 mmol/L
- Blood glucose levels (meal glucose [4]; 135 min): 10.2 mmol/L
- Blood glucose levels (meal glucose [4]; 150 min): 9.6 mmol/L
- Blood glucose levels (meal glucose [4]; 165 min): 9.5 mmol/L
- Blood glucose levels (meal glucose [4]; 180 min): 9.1 mmol/L
- Blood glucose levels (meal glucose [4]; 195 min): 8.7 mmol/L
- Blood glucose levels (meal glucose [4]; 210 min): 8.2 mmol/L
- Blood glucose levels (meal glucose [4]; 225 min): 8.0 mmol/L
- Blood glucose levels (meal glucose [4]; 240 min): 7.5 mmol/L
- Blood glucose levels (blood glucose [5]; 0 min): 7.9 mmol/L
- Blood glucose levels (blood glucose [5]; 15 min): 7.9 mmol/L
- Blood glucose levels (blood glucose [5]; 30 min): 8.2 mmol/L
- Blood glucose levels (blood glucose [5]; 45 min): 8.3 mmol/L
- Blood glucose levels (blood glucose [5]; 60 min): 7.6 mmol/L
- Blood glucose levels (blood glucose [5]; 90 min): 6.2 mmol/L
- Blood glucose levels (blood glucose [5]; 120 min): 5.2 mmol/L
- Blood glucose levels (blood glucose [5]; 150 min): 4.6 mmol/L
- Blood glucose levels (blood glucose [5]; 180 min): 3.9 mmol/L
- Blood glucose levels (blood glucose [5]; 210 min): 4.4 mmol/L
- Blood glucose levels (blood glucose [5]; 240 min): 5.2 mmol/L
